{"source": "patent US6525001B1", "about": "“Substituted pyrimidine and pyridine herbicides” (Mid-American Commercialization Corporation, priority 1997, dated 2003)", "experiment_in_all_cases": "Test D", "assay_type_in_all_cases": "in vivo", "key": {"[1]": {"test_system": "blackgrass (Alopecurus myosuroides)", "conditions": "POSTEMERGENCE", "experimental": "(§1) Compounds evaluated in this test were formulated in a non-phytotoxic solvent mixture which included a surfactant and applied to plants that were in the 1- to 4-leaf stage (postemergence application). A mixture of sandy loam soil and greenhouse potting mix in a 60:40 ratio was used for the postemergence test.\n(§2) Plantings of these crops and weed species were adjusted to produce plants of appropriate size for the postemergence test. All plant species were grown using normal greenhouse practices. Crop and weed species include alfalfa (Medicago sativa), annual bluegrass (Poa annua), blackgrass (Alopecurus myosuroides), black nightshade (Solanum nigra), chickweed (Stellaria media), common poppy (Papaver rhoeas), deadnettle (Lamium amplexicaule), downy brome (Bromus tectorum), field violet (Viola arvensis), galium 2 (Galium aparine), green foxtail (Setaria viridis), Italian ryegrass (Lolium multiflorum), jointed goatgrass (Aegilops cylindrica), kochia (Kochia scoparia), lambsquarters (Chenopodium album), lentil (Lens culinaris), littleseed canarygrass (Phalaris minor), pea (Pisum sativum), potato (Solanum tuberosum), rape (Brassica napus), redroot pigweed (Amaranthus retroflexus), Russian thistle (Salsola kali), scentless chamomile (Matricaria inodora), sorghum (Sorghum vulgare), spring barley (Hordeum vulgare), sugar beet (Beta vulgaris), sunflower (Helianthus annuus), ivyleaf speedwell (Veronica hederaefolia), spring wheat (Triticum aestivum), winter wheat (Triticum aestivum), wild buckwheat (Polygonum convolvulus), wild mustard (Sinapis arvensis), wild oat (Avena fatua), windgrass (Apera spica-venti) and winter barley (Hordeum vulgare).\n(§3) Treated plants and untreated controls were maintained in a greenhouse for approximately 21 to 28 days, after which all treated plants were compared to untreated controls and visually evaluated. Plant response ratings, summarized in Table D, are based upon a 0 to 100 scale where 0 is no effect and 100 is complete control. A dash response (−) means no test result."}, "[2]": {"test_system": "downy brome (Bromus tectorum)", "conditions": "POSTEMERGENCE", "experimental": "as §1, §2, §3"}, "[3]": {"test_system": "jointed goatgrass (Aegilops cylindrica)", "conditions": "POSTEMERGENCE", "experimental": "as §1, §2, §3"}, "[4]": {"test_system": "spring wheat (Triticum aestivum)", "conditions": "POSTEMERGENCE", "experimental": "as §1, §2, §3"}, "[5]": {"test_system": "sunflower (Helianthus annuus)", "conditions": "POSTEMERGENCE", "experimental": "as §1, §2, §3"}, "wild oat (Avena fatua)": {"test_system": "wild oat (Avena fatua)", "conditions": "POSTEMERGENCE", "experimental": "as §1, §2, §3"}, "[6]": {"test_system": "winter barley (Hordeum vulgare)", "conditions": "POSTEMERGENCE", "experimental": "as §1, §2, §3"}, "[7]": {"test_system": "winter wheat (Triticum aestivum)", "conditions": "POSTEMERGENCE", "experimental": "as §1, §2, §3"}, "[8]": {"test_system": "black nightshade (Solanum nigra)", "design": "key: 0 is no effect; 100 is complete control", "conditions": "POSTEMERGENCE", "experimental": "as §1, §2, §3"}, "[9]": {"test_system": "chickweed (Stellaria media)", "design": "key: 0 is no effect; 100 is complete control", "conditions": "POSTEMERGENCE", "experimental": "as §1, §2, §3"}, "[10]": {"test_system": "common poppy (Papaver rhoeas)", "design": "key: 0 is no effect; 100 is complete control", "conditions": "POSTEMERGENCE", "experimental": "as §1, §2, §3"}, "[11]": {"test_system": "deadnettle (Lamium amplexicaule)", "design": "key: 0 is no effect; 100 is complete control", "conditions": "POSTEMERGENCE", "experimental": "as §1, §2, §3"}, "rape (Brassica napus)": {"test_system": "rape (Brassica napus)", "design": "key: 0 is no effect; 100 is complete control", "conditions": "POSTEMERGENCE", "experimental": "as §1, §2, §3"}, "[12]": {"test_system": "sugar beet (Beta vulgaris)", "design": "key: 0 is no effect; 100 is complete control", "conditions": "POSTEMERGENCE", "experimental": "as §1, §2, §3"}, "[13]": {"test_system": "wild mustard (Sinapis arvensis)", "design": "key: 0 is no effect; 100 is complete control", "conditions": "POSTEMERGENCE", "experimental": "as §1, §2, §3"}, "[14]": {"test_system": "annual bluegrass (Poa annua)", "design": "key: 0 is no effect; 100 is complete control", "conditions": "PREEMERGENCE"}, "[15]": {"test_system": "chickweed (Stellaria media)", "conditions": "PREEMERGENCE"}, "[16]": {"test_system": "deadnettle (Lamium amplexicaule)", "design": "key: 0 is no effect", "conditions": "PREEMERGENCE"}, "[17]": {"test_system": "littleseed canarygrass (Phalaris minor)", "conditions": "PREEMERGENCE"}, "[18]": {"test_system": "scentless chamomile (Matricaria inodora)", "conditions": "PREEMERGENCE"}, "[19]": {"test_system": "sunflower (Helianthus annuus)", "conditions": "PREEMERGENCE"}, "[20]": {"test_system": "winter barley (Hordeum vulgare)", "design": "key: 0 is no effect", "conditions": "PREEMERGENCE"}, "[21]": {"test_system": "Russian thistle (Salsola kali)", "conditions": "PREEMERGENCE"}}, "data": [{"smiles": "CCc1cnc(-c2ccc(C(F)(F)F)cc2)nc1Cc1cccc(C(F)(F)F)c1", "note": "[Compound 22]", "values": [{"measurement": "Plant response rating, Blackgrass", "setting": "[1]; Rate 62 g/ha", "result": 10}, {"measurement": "Plant response rating, Blackgrass", "setting": "[1]; Rate 125 g/ha", "result": 20}, {"measurement": "Plant response rating, Downy brome", "setting": "[2]; Rate 62 g/ha", "result": 10}, {"measurement": "Plant response rating, Downy brome", "setting": "[2]; Rate 125 g/ha", "result": 20}, {"measurement": "Plant response rating, Jointed goatgra", "setting": "[3]; Rate 62 g/ha", "result": 10}, {"measurement": "Plant response rating, Jointed goatgra", "setting": "[3]; Rate 125 g/ha", "result": 15}, {"measurement": "Plant response rating, Spring Wheat", "setting": "[4]; Rate 62 g/ha", "result": 10}, {"measurement": "Plant response rating, Spring Wheat", "setting": "[4]; Rate 125 g/ha", "result": 20}, {"measurement": "Plant response rating, Sunflower", "setting": "[5]; Rate 62 g/ha", "result": 10}, {"measurement": "Plant response rating, Sunflower", "setting": "[5]; Rate 125 g/ha", "result": 20}, {"measurement": "Plant response rating, Wild oat", "setting": "wild oat (Avena fatua); Rate 62 g/ha", "result": 20}, {"measurement": "Plant response rating, Wild oat", "setting": "wild oat (Avena fatua); Rate 125 g/ha", "result": 65}, {"measurement": "Plant response rating, Barley (winter)", "setting": "[6]; Rate 62 g/ha", "result": 10}, {"measurement": "Plant response rating, Barley (winter)", "setting": "[6]; Rate 125 g/ha", "result": 10}, {"measurement": "Plant response rating, Wheat (winter)", "setting": "[7]; Rate 62 g/ha", "result": 10}, {"measurement": "Plant response rating, Wheat (winter)", "setting": "[7]; Rate 125 g/ha", "result": 10}, {"measurement": "Plant response rating, Blk nightshade", "setting": "[8]; Rate 62 g/ha", "result": 90}, {"measurement": "Plant response rating, Blk nightshade", "setting": "[8]; Rate 125 g/ha", "result": 100}, {"measurement": "Plant response rating, Chickweed", "setting": "[9]; Rate 62 g/ha", "result": 60}, {"measurement": "Plant response rating, Chickweed", "setting": "[9]; Rate 125 g/ha", "result": 100}, {"measurement": "Plant response rating, Common poppy", "setting": "[10]; Rate 62 g/ha", "result": 100}, {"measurement": "Plant response rating, Common poppy", "setting": "[10]; Rate 125 g/ha", "result": 100}, {"measurement": "Plant response rating, Deadnettle", "setting": "[11]; Rate 62 g/ha", "result": 50}, {"measurement": "Plant response rating, Deadnettle", "setting": "[11]; Rate 125 g/ha", "result": 90}, {"measurement": "Plant response rating, Rape", "setting": "rape (Brassica napus); Rate 62 g/ha", "result": 90}, {"measurement": "Plant response rating, Rape", "setting": "rape (Brassica napus); Rate 125 g/ha", "result": 90}, {"measurement": "Plant response rating, Sugar beet", "setting": "[12]; Rate 62 g/ha", "result": 100}, {"measurement": "Plant response rating, Sugar beet", "setting": "[12]; Rate 125 g/ha", "result": 100}, {"measurement": "Plant response rating, Wild mustard", "setting": "[13]; Rate 62 g/ha", "result": 100}, {"measurement": "Plant response rating, Wild mustard", "setting": "[13]; Rate 125 g/ha", "result": 100}, {"measurement": "Plant response rating, Annual bluegras", "setting": "[14]; Rate 62 g/ha", "result": 20}, {"measurement": "Plant response rating, Annual bluegras", "setting": "[14]; Rate 125 g/ha", "result": 100}, {"measurement": "Plant response rating, Annual bluegras", "setting": "[14]; Rate 250 g/ha", "result": 50}, {"measurement": "Plant response rating, Chickweed", "setting": "[15]; Rate 62 g/ha", "result": 40}, {"measurement": "Plant response rating, Chickweed", "setting": "[15]; Rate 125 g/ha", "result": 70}, {"measurement": "Plant response rating, Chickweed", "setting": "[15]; Rate 250 g/ha", "result": 30}, {"measurement": "Plant response rating, Deadnettle", "setting": "[16]; Rate 62 g/ha", "result": 0}, {"measurement": "Plant response rating, Deadnettle", "setting": "[16]; Rate 125 g/ha", "result": 70}, {"measurement": "Plant response rating, Deadnettle", "setting": "[16]; Rate 250 g/ha", "result": 10}, {"measurement": "Plant response rating, LS canarygrass", "setting": "[17]; Rate 62 g/ha", "result": 20}, {"measurement": "Plant response rating, LS canarygrass", "setting": "[17]; Rate 125 g/ha", "result": 60}, {"measurement": "Plant response rating, LS canarygrass", "setting": "[17]; Rate 250 g/ha", "result": 50}, {"measurement": "Plant response rating, Scentless chamo", "setting": "[18]; Rate 62 g/ha", "result": 60}, {"measurement": "Plant response rating, Scentless chamo", "setting": "[18]; Rate 125 g/ha", "result": 70}, {"measurement": "Plant response rating, Scentless chamo", "setting": "[18]; Rate 250 g/ha", "result": 70}, {"measurement": "Plant response rating, Sunflower", "setting": "[19]; Rate 62 g/ha", "result": 20}, {"measurement": "Plant response rating, Sunflower", "setting": "[19]; Rate 125 g/ha", "result": 10}, {"measurement": "Plant response rating, Sunflower", "setting": "[19]; Rate 250 g/ha", "result": 30}, {"measurement": "Plant response rating, Barley (winter)", "setting": "[20]; Rate 62 g/ha", "result": 0}, {"measurement": "Plant response rating, Barley (winter)", "setting": "[20]; Rate 125 g/ha", "result": 20}, {"measurement": "Plant response rating, Barley (winter)", "setting": "[20]; Rate 250 g/ha", "result": 10}]}, {"smiles": "CCc1cnc(-n2ccc(C(F)(F)F)n2)nc1Cc1cccc(C(F)(F)F)c1", "note": "[Compound 46]", "values": [{"measurement": "Plant response rating, Annual bluegras", "setting": "[14]; Rate 31 g/ha", "result": 60}, {"measurement": "Plant response rating, Annual bluegras", "setting": "[14]; Rate 62 g/ha", "result": 90}, {"measurement": "Plant response rating, Chickweed", "setting": "[15]; Rate 31 g/ha", "result": 70}, {"measurement": "Plant response rating, Chickweed", "setting": "[15]; Rate 62 g/ha", "result": 70}, {"measurement": "Plant response rating, Deadnettle", "setting": "[16]; Rate 31 g/ha", "result": 90}, {"measurement": "Plant response rating, Deadnettle", "setting": "[16]; Rate 62 g/ha", "result": 90}, {"measurement": "Plant response rating, LS canarygrass", "setting": "[17]; Rate 31 g/ha", "result": 70}, {"measurement": "Plant response rating, LS canarygrass", "setting": "[17]; Rate 62 g/ha", "result": 90}, {"measurement": "Plant response rating, Russian thistle", "setting": "[21]; Rate 31 g/ha", "result": 30}, {"measurement": "Plant response rating, Russian thistle", "setting": "[21]; Rate 62 g/ha", "result": 30}, {"measurement": "Plant response rating, Scentless chamo", "setting": "[18]; Rate 31 g/ha", "result": 65}, {"measurement": "Plant response rating, Scentless chamo", "setting": "[18]; Rate 62 g/ha", "result": 70}, {"measurement": "Plant response rating, Sunflower", "setting": "[19]; Rate 31 g/ha", "result": 10}, {"measurement": "Plant response rating, Sunflower", "setting": "[19]; Rate 62 g/ha", "result": 30}, {"measurement": "Plant response rating, Barley (winter)", "setting": "[20]; Rate 31 g/ha", "result": 50}, {"measurement": "Plant response rating, Barley (winter)", "setting": "[20]; Rate 62 g/ha", "result": 2}]}]}
